Here are results for nine molecules from patent publication US20230126992A1, “Antibacterial Antiviral Pharmaceutical Composition and Application Thereof” (priority 2020, published 2023).

Where “and” joins values, the source holds several entries; their conditions need not be identical. Identical values can stand only once. Counter-ions that a name gives are not always drawn. Like-named read-outs stand apart in the source and are kept apart here.

Data set [1] relates to SARS-CoV-2. Briefly: Test of direct killing of virus. The class given is cell-based.
The test system of data set [2] is Vero E6 cells. Briefly: Toxicity test to Vero E6 cells (CCK8). The following applies: 3 days.
Data set [3] has as its system SARS-CoV-2. Briefly: microbe, parasite or virus in culture.
Data set [4] has as its system SARS-CoV-2. Briefly: Inhibition of Vero E6 cell death induced by SARS-CoV-2, simultaneous addition of drug and virus. To be noted: for Inhibition rate to SARS-CoV-2 induced cell death: simultaneous addition.
In data set [5] the test system is SARS-CoV-2. To be noted: for Inhibition rate to SARS-CoV-2 induced cell death: drug 1 hour after infection.
Data set [6] concerns tracheal excretion of phenol red of mice. Briefly: Tracheal excretion of phenol red in mice. To be noted: dose 30 mg/kg intragastric, 7 days; 546 nm.
The test system of data set [7] is asthma of guinea pigs induced by acetylcholine and histamine phosphate. Briefly: Asthmatic guinea pigs induced by acetylcholine combined with histamine phosphate (Example 3).
Data set [8] shares this test system. Briefly: Asthmatic guinea pigs induced by acetylcholine combined with histamine phosphate (Example 9).
Data set [9] has as its system LPS-induced fever in rats. Briefly: LPS induced rat fever model. The following applies: dose 200 mg/kg.
Data set [10] deals with capillary discharge sputum volume in rats. Briefly: Capillary discharge sputum volume in rats (Example 3). To be noted: dose 200 mg/kg intragastric, 7 days; 2 h collection.
Data set [11] has the same test system. Briefly: Capillary discharge sputum volume in rats (Example 9). To be noted: dose 0.2 g/kg intragastric, 7 days.
Data set [12] deals with acute pharyngitis rats. Briefly: Acute pharyngitis model in rat, serum IL-6 and TNF-α by ELISA. The following applies: dose 5 mg/kg, 3 days. (In an ELISA, binding on a coated surface is turned into a signal by an enzyme label.)
The subject of data set [13] is influenza virus FM1. The class given is in vivo, ICR mice. The following applies: dose 27.5 mg/kg, 7 days.
For data set [14], the system named is influenza virus FM1. The class given is in vivo, ICR mice. To be noted: dose 27.5 mg/kg.
Data set [15] concerns influenza virus FM1. Format: in vivo, ICR mice.
In data set [16] the test system is concentrated ammonia water induced cough in mice. Briefly: Concentrated ammonia water induced cough test in mice (Example 3). The following applies: dose 20 mg/kg intragastric, 7 d. The class given is in vivo, ICR mice.
Data set [17] shares this test system. Briefly: Concentrated ammonia water induced cough test in mice (Example 9, dropping pills). The class given is in vivo, ICR mice. To be noted: dose 0.02 g/kg intragastric, 7 days.
The mark [18] stands for this setting: simultaneous addition of the drug and virus.
Where [19] appears, read: concentration 0.064 μM, 0.064 µM.
Where [20] appears, read: addition of the drug after infection.
Setting [21] is: dose 60 mg/kg intragastric, 7 d.
[22] abbreviates: dose 0.06 g/kg intragastric, 7 days.
The mark [23] stands for this setting: lung tissue homogenate, dose 27.5.

Turning to `OO` [Example H2O2, H2O2], the “Inhibition rate (killing effect)” value in data set [1] (0.01% incubated with virus 0 min) was 82.13 ± 8.64% and 92.94 ± 6.31%; in [1] (0.01% incubated with virus 5 min), 98.16 ± 18.42% and 99.25 ± 2.95%; in data set [1] (0.01% incubated with virus 10 min), 89.87 ± 7.26% and 98.25 ± 2.36%; in [1] (0.01% incubated with virus 30 min), 102.74 ± 8.56% and 102.50 ± 14.39%; in data set [1] (0.01% incubated with virus 60 min), 95.28 ± 10.93% and 101.35 ± 11.45%.

For the molecule `CCC(CC)COC(=O)[C@H](C)N[P@](=O)(OC[C@H]1O[C@@](C#N)(c2ccc3c(N)ncnn23)[C@H](O)[C@@H]1O)Oc1ccccc1` [Remdesivir], the Cell survival rate is 101.58 ± 3.33% and 95.44 ± 10.01% in data set [2] (concentration 0.064 μM); 99.55 ± 10.53% and 93.59 ± 6.96% in data set [2] (concentration 0.32 μM); 91.37 ± 10.73% and 98.11 ± 7.16% in data set [2] (concentration 1.6 μM); 87.35 ± 4.25% and 90.08 ± 1.88% in data set [2] (concentration 8 μM); 76.24 ± 8.59% and 77.22 ± 11.23% in [2] (concentration 40 μM); 53.84 ± 3.48% and 71.58 ± 3.12% in data set [2] (concentration 200 μM). The inhibition at 0.064 µM in [3] (Severe acute respiratory syndrome coronavirus 2, Vero C1008, 1 h, read-out: Inhibition rate to SARS-CoV-2 induced cell death, drug 1 hour after infection, concentration 0.064 μM) stood at 7.48 ± 11.8%. Also, the inhibition at 0.32 µM in data set [3] (Severe acute respiratory syndrome coronavirus 2, Vero C1008, 1 h, read-out: Inhibition rate to SARS-CoV-2 induced cell death, drug 1 hour after infection, concentration 0.32 μM) came out at 46.3 ± 15.2%; in data set [4] (Severe acute respiratory syndrome coronavirus 2, Vero C1008, read-out: Inhibition rate to SARS-CoV-2 induced cell death, simultaneous addition, concentration 0.32 μM), 21.3 ± 12.8%. The inhibition at 1.6 µM in data set [3] (Severe acute respiratory syndrome coronavirus 2, Vero C1008, 1 h, read-out: Inhibition rate to SARS-CoV-2 induced cell death, drug 1 hour after infection, concentration 1.6 μM) stood at 61.5 ± 6.96%; in [4] (Severe acute respiratory syndrome coronavirus 2, Vero C1008, read-out: Inhibition rate to SARS-CoV-2 induced cell death, simultaneous addition, concentration 1.6 μM), 56 ± 7.66%. The inhibition at 8 µM in data set [3] (Severe acute respiratory syndrome coronavirus 2, Vero C1008, 1 h, read-out: Inhibition rate to SARS-CoV-2 induced cell death, drug 1 hour after infection, concentration 8 μM) is 73.4 ± 3.67%; in data set [4] (Severe acute respiratory syndrome coronavirus 2, Vero C1008, read-out: Inhibition rate to SARS-CoV-2 induced cell death, simultaneous addition, concentration 8 μM), 89.2 ± 1.29%. For the same molecule, the inhibition at 40 µM in data set [3] (Severe acute respiratory syndrome coronavirus 2, Vero C1008, 1 h, read-out: Inhibition rate to SARS-CoV-2 induced cell death, drug 1 hour after infection, concentration 40 μM) was found to be 91.2 ± 9.91%; in data set [4] (Severe acute respiratory syndrome coronavirus 2, Vero C1008, read-out: Inhibition rate to SARS-CoV-2 induced cell death, simultaneous addition, concentration 40 μM), 95.8 ± 8.77%. In addition, the inhibition at 200 µM in data set [3] (Severe acute respiratory syndrome coronavirus 2, Vero C1008, 1 h, read-out: Inhibition rate to SARS-CoV-2 induced cell death, drug 1 hour after infection, concentration 200 μM) was determined as 100 ± 9.98%; in data set [4] (Severe acute respiratory syndrome coronavirus 2, Vero C1008, read-out: Inhibition rate to SARS-CoV-2 induced cell death, simultaneous addition, concentration 200 μM) it was 98.9 ± 3.47%. The concentration for half-maximal inhibition (IC50) in [3] (Severe acute respiratory syndrome coronavirus 2, Vero C1008, addition of the drug after infection) is 0.825 ± 0.128 µM; in data set [4] (Severe acute respiratory syndrome coronavirus 2, Vero C1008, simultaneous addition of the drug and virus), 1.12 ± 0.052 µM; in data set [4] (setting [18]) it was 1.16 µM and 1.08 µM; in data set [5] (setting [20]), 0.734 µM and 0.915 µM. Moreover, the “TI (CC50/IC50)” value in data set [4] (setting [18]) is over 178.89; in data set [5] (setting [20]), over 242.42. The “Inhibition rate to SARS-CoV-2 induced cell death” value in data set [4] (setting [19]) was 2.80 ± 2.11% and 9.23 ± 5.11%; in data set [4] (concentration 0.32 μM, 0.32 µM), 26.39 ± 6.35%; in data set [4] (concentration 1.6 μM, 1.6 µM), 59.24 ± 13.49%; in data set [4] (concentration 8 μM, 8 µM), 78.78 ± 9.66%; in data set [4] (concentration 40 μM, 40 µM) it was 91.04 ± 3.06%; in data set [4] (concentration 200 μM, 200 µM), 94.82 ± 0.89%. For the same molecule, the “Inhibition rate to SARS-CoV-2 induced cell death” value in data set [5] (setting [19]) is 6.51 ± 7.08%; in data set [5] (concentration 0.32 μM, 0.32 µM), 28.39 ± 11.56%; in data set [5] (concentration 1.6 μM, 1.6 µM), 53.50 ± 3.37%; in [5] (concentration 8 μM, 8 µM) it was 92.29 ± 6.68%; in data set [5] (concentration 40 μM, 40 µM) it was 94.31 ± 5.01%; in data set [5] (concentration 200 μM, 200 µM) it was 98.83 ± 2.97%.

Take `Nc1c(Br)cc(Br)cc1CN[C@H]1CC[C@H](O)CC1` [ambroxol hydrochloride]: the “Tracheal excretion amount of phenol red” value in data set [6] came out at 0.566 ± 0.201 OD value.

As to `Cn1c(=O)c2[nH]cnc2n(C)c1=O` [aminophylline], in [7] (60 mg/kg group, before administration (baseline)), the “asthma incubation period, Pre-administration” value worked out at 33.1 ± 9.2 s. The “asthma incubation period, Post-administration” value was 123.4 ± 50.3 s in data set [7] (setting [21]) and 95.3 ± 37.6 s in [8] (setting [22]). For the same molecule, the “asthma incubation period, extension value (post-pre)” value is given as 90.3 ± 51.1 s in data set [7] (setting [21]) and 58.4 ± 32.1 s in data set [8] (setting [22]). Further, in data set [8] (0.06 g/kg group, before administration (baseline)), the “Asthma incubation period, pre-administration” value was found to be 36.9 ± 5.8 s.

Regarding `CC(=O)Oc1ccccc1C(=O)O` [aspirin], the “Temperature difference (ΔT)” value in [9] (1 h after LPS) came out at 0.10 ± 0.34 °C; in [9] (2 h after LPS), 0.43 ± 0.29 °C; in data set [9] (3 h after LPS) it was 0.42 ± 0.24 °C; in [9] (4 h after LPS) it was 0.46 ± 0.34 °C; in data set [9] (5 h after LPS), 0.79 ± 0.17 °C; in [9] (6 h after LPS) it was 0.88 ± 0.18 °C. For the same molecule, the “Temperature difference (ΔT)” value in data set [9] (7 h after LPS) was determined as 0.53 ± 0.24 °C.

In the case of `N[C@@H](CSCC(=O)O)C(=O)O` [carbocisteine], the values for the Sputum excretion volume in data set [10] and in data set [11] were 18.11 ± 4.32 cm and 21.56 ± 4.41 cm, respectively.

In [12], `C[C@@H]1C[C@H]2[C@@H]3CCC4=CC(=O)C=C[C@]4(C)[C@@]3(F)[C@@H](O)C[C@]2(C)[C@@]1(O)C(=O)CO` [dexamethasone] yielded an IL-6 of 146.3 ± 10.4 pg/mL and a TNF-α of 218.2 ± 5.8 pg/mL.

Consider `CCOC(=O)C1=C[C@@H](OC(CC)CC)[C@H](NC(C)=O)[C@@H](N)C1` [oseltamivir], for which the Lung index in [13] turned out to be 0.95 ± 0.13; in data set [14] it was 0.89 ± 0.17; in [15] (dose 27.5 mg/kg intraperitoneal, 7 days) it was 0.89 ± 0.20. Also, the “Lung index inhibition rate” value in data set [13] is reported as 41.0%. The IL-8 in data set [15] (setting [23]) was found to be 80.3 ± 15.3 pg/mL. This molecule also came in with a TNF-α in data set [15] (setting [23]) of 65.2 ± 17.5 pg/mL.

With `CCN(CC)CCOCCOC(=O)C1(c2ccccc2)CCCC1` [pentoxyverine citrate], the figures for the Cough incubation period in data set [16] and in [17] were 26.3 ± 3.3 s and 23.3 ± 4.2 s, respectively. Further, the Frequency of cough in [16] worked out at 55.8 ± 14.7 time/2 min; in data set [17] it was 40.6 ± 12.5 time/2 min.

A word on the inhibition: it is the percentage by which the read-out fell short of the control. Broadly, the IC50 is the point on the concentration scale where inhibition reaches its midpoint. A higher IC50 goes with a need for much substance.
